# Literature values, collected in patent publication US20150208691A1, “NOVEL USE OF ALKOXYLATES OF MONO- AND POLYVALENT ALCOHOLS” (AB AGRI LIMITED, priority 2012, published 2015).
# Where two headings read alike, the source gives them in different places.
# Assays:
# [1] = tested on: methane emissions; conditions: sheep
# [2] = tested on: methane emissions; conditions: cows, compared with sheep
smiles,measurement,setting,value
C=CCS[S+]([O-])CC=C (centres unmarked) [Allicin],reduction of methane emissions,[1],20%
same,reduction of methane emissions,[2],not as effective
